Source: US20220002280A1, “COMPOUNDS AND METHODS OF USE” (Ferro Therapeutics, Inc., priority 2019, published 2022)

How the values were obtained:
Assay type in all cases: cell-based, human
A431 = assay: Cell proliferation (Alamar Blue) assay, A431; conditions: Homo sapiens, A-431, A431 cells, 24 h treatment
Experimental: (§1) A cell viability assay was performed to assess the potency of the compounds in human cancer cell lines 786-0 (renal cell carcinoma), SJSA-1 (osteosarcoma), and/or A431 (epidermoid carcinoma). Additional cell lines, such as pancreatic cancer cell lines (e.g., Panc 02.13, BxPC-3, Panc 12, Panc 02.03, Panc 6.03, PSN-1, HPAC, and Capan-1), prostate cancer cell lines (e.g., PC-3, DU145, 22Rv1, NCI-H660, BPH1, LNCaP, BM-1604, and MDA PCa 2b), etc., can be tested in a similar method.
(§2) Cells (SJSA-1, 786-0 and/or A431) were seeded (5000 cells/100 μL/well) in 96-well tissue culture plate and incubated at 37° C./5% CO2 for 16-24 hours. The cells were then treated with compounds (25 μL of 5×). The compound concentrations were 10-0.0005 μM prepared in 3-fold serial dilutions with final DMSO concentration of 1%. The plates were then incubated for 24h at 37° C./5% CO2 in a moist environment. Then Alamar Blue™ reagent (final concentration 1×-12.5 μL) was added to each well and incubated for 1.5 hours at 37° C./5% CO2. The plates were read on fluorescence reader at 540 nm excitation and 590 nm emission wavelengths. The IC50 values were subsequently determined using a sigmoidal dose-response curve (variable slope) in GraphPad Prism® 5 software.

SJSA-1 = assay: Cell proliferation (Alamar Blue) assay, SJSA-1; conditions: Homo sapiens, SJSA-1 cells, 24 h treatment
Experimental: as §1, §2

786-O = assay: Cell proliferation (Alamar Blue) assay, 786-O; conditions: Homo sapiens, 786-0, 24 h, 786-O cells, 24 h treatment
Experimental: as §1, §2

| SMILES | IC50 (A431) [µM] | IC50 (SJSA-1) [µM] | IC50 (786-O) [µM] |
| --- | --- | --- | --- |
| C#CC(=O)N1C(c2ccnc(C)c2)c2ccc(OC)cc2C[C@@H]1CCCC (stereo in doubt) [Compound 48, 1-((1S,3S)-3-butyl-6-methoxy-1-(2-methylpyridin-4-yl)-3,4-dihydroisoquinolin-2(1H)-yl)prop-2-yn-1-one] | 5 | 0.05 | 0.053 |
| COC(=O)c1ccc([C@@H]2c3ccccc3C[C@H](C(=O)OC)N2C(=O)CCl)cc1 [Compound 2, methyl (1R,3R)-2-(2-chloroacetyl)-1-(4-(methoxycarbonyl)phenyl)-1,2,3,4-tetrahydroisoquinoline-3-carboxylate] | 8.7 | 0.855 | 0.742 |
| COC(=O)c1ccc([C@H]2c3ccccc3C[C@H](C(=O)OC)N2C(=O)CCl)cc1 [Compound 3, methyl (1S,3R)-2-(2-chloroacetyl)-1-(4-(methoxycarbonyl)phenyl)-1,2,3,4-tetrahydroisoquinoline-3-carboxylate] | > 10 | 0.736 | 0.512 |
| COC(=O)c1ccc([C@H]2c3ccc(OC)cc3C[C@H](C)N2C(=O)CCl)cc1 [Compound 7, methyl 4-((1S,3S)-2-(2-chloroacetyl)-6-methoxy-3-methyl-1,2,3,4-tetrahydroisoquinolin-1-yl)benzoate] | 7.8 | 0.22 | 0.137 |
| C#CC(=O)N1[C@H](c2ccc(F)cc2)c2ccc(OC)cc2C[C@@H]1C [Compound 10] | 8.6 | 0.278 | 0.164 |
| CCCC[C@H]1Cc2cc(OC)ccc2[C@H](c2ccc(F)cc2)N1C(=O)CCl [Compound 11, 1-((1S,3S)-3-butyl-1-(4-fluorophenyl)-6-methoxy-3,4-dihydroisoquinolin-2(1H)-yl)-2-chloroethan-1-one] | > 10 | 0.018 | 0.016 |
| C#CC(=O)N1[C@@H](CCCC)Cc2cc(OC)ccc2[C@@H]1c1ccc(S(=O)(=O)NC2CCC2)cc1 [Compound 18, 4-((1S,3S)-3-butyl-6-methoxy-2-propioloyl-1,2,3,4-tetrahydroisoquinolin-1-yl)-N-cyclobutylbenzenesulfonamide] | 8.9 | 0.008 | 0.004 |
| COC(=O)c1ccc([C@H]2c3ccccc3C[C@H](C)N2C(=O)CCl)cc1 [Compound 35] | – | 2.56 | – |
| C#CC(=O)N1[C@@H](CCCC)Cc2cc(OC)ccc2[C@@H]1C1CCCCC1 [Compound 39, 1-((1S,3S)-3-butyl-1-cyclohexyl-6-methoxy-3,4-dihydroisoquinolin-2(1H)-yl)prop-2-yn-1-one] | > 10 | 0.17 | 0.158 |
| C#CC(=O)N1[C@@H](CCCC)Cc2cc(OC)ccc2[C@@H]1c1ccccn1 [Compound 49, 1-((1R,3S)-3-butyl-6-methoxy-1-(pyridin-2-yl)-3,4-dihydroisoquinolin-2(1H)-yl)prop-2-yn-1-one] | 6.6 | 0.04 | 0.023 |
| C#CC(=O)N1[C@@H](CCCC)Cc2cc(OC)ccc2[C@@H]1c1ccn(C)n1 [Compound 50, 1-[(1R,3S)-3-butyl-6-methoxy-1-(1-methyl-1H-pyrazol-3-yl)-1,2,3,4-tetrahydroisoquinolin-2-yl]prop-2-yn-1-one] | > 10 | 0.101 | 0.065 |
| C#CC(=O)N1[C@@H](CCCC)Cc2cc(OC)ccc2[C@@H]1C1CCN(C)CC1 [Compound 54, 1-((3S)-3-butyl-6-methoxy-1-(1-methylpiperidin-4-yl)-3,4-dihydroisoquinolin-2(1H)-yl)prop-2-yn-1-one] | 5.8 | 0.659 | 0.743 |
| C#CC(=O)N1[C@@H](CCCC)Cc2cc(OC)ccc2[C@@H]1c1ccc(Nc2cccnc2)cc1 [Compound 94, 1-[(1S,3S)-3-butyl-6-methoxy-1-{4-[(pyridin-3-yl)amino]phenyl}-1,2,3,4-tetrahydroisoquinolin-2-yl]prop-2-yn-1-one] | > 10 | 0.047 | 0.108 |
| C#CC(=O)N1[C@@H](CCCC)Cc2cc(OC)ccc2[C@@H]1c1ccc(NC(=O)OCCCCC)cc1 [Compound 98, pentyl N-{4-[(1S,3S)-3-butyl-6-methoxy-2-(prop-2-ynoyl)-1,2,3,4-tetrahydroisoquinolin-1-yl]phenyl}carbamate] | 8.92 | 0.053 | 0.024 |
| C#CC(=O)N1[C@@H](CCCC)Cc2cc(OC)ccc2[C@@H]1c1ccc(CNC23CC4CC(CC(C4)C2)C3)cc1 [Compound 99] | 2.77 | 0.002 | 0.002 |

Second part, the molecule after the results:

| IC50 (A431) [µM] | IC50 (SJSA-1) [µM] | IC50 (786-O) [µM] | SMILES |
| --- | --- | --- | --- |
| – | 2.8 | 2 | C[C@H]1Cc2ccccc2C(c2ccc(N3CCOCC3)cc2)N1C(=O)CCl (stereo partly drawn) [Compound 1, 2-chloro-1-((3S)-3-methyl-1-(4-morpholinophenyl)-3,4-dihydroisoquinolin-2(1H)-yl)ethan-1-one] |
| > 10 | 3.2 | 3 | COC(=O)c1ccc([C@@H]2c3ccc(OC)cc3C[C@H](C)N2C(=O)CCl)cc1 [Compound 6, methyl 4-((1R,3S)-2-(2-chloroacetyl)-6-methoxy-3-methyl-1,2,3,4-tetrahydroisoquinolin-1-yl)benzoate] |
| 3.6 | 0.005 | 0.002 | CCCC[C@H]1Cc2cc(OC)ccc2[C@H](c2ccc(C(=O)NC3CCC3)cc2)N1C(=O)CCl [Compound 13, 4-((1S,3S)-3-butyl-2-(2-chloroacetyl)-6-methoxy-1,2,3,4-tetrahydroisoquinolin-1-yl)-N-cyclobutylbenzamide] |
| 7.6 | 0.07 | 0.024 | C#CC(=O)N1[C@@H](CCCC)Cc2cc(OC)ccc2[C@@H]1c1ccc(C(=O)NCCOC)cc1 [Compound 14, 4-((1S,3S)-3-butyl-6-methoxy-2-propioloyl-1,2,3,4-tetrahydroisoquinolin-1-yl)-N-(2 methoxyethyl)benzamide] |
| 3.5 | 0.018 | 0.01 | C#CC(=O)N1[C@@H](CCCC)Cc2cc(OC)ccc2[C@@H]1c1ccc(C(=O)NC2CCC2)nc1 [Compound 15, 5-((1R,3S)-3-butyl-6-methoxy-2-propioloyl-1,2,3,4-tetrahydroisoquinolin-1-yl)-N-cyclobutylpicolinamide] |
| 8.4 | 0.006 | 0.004 | CCCC[C@H]1Cc2cc(OC)ccc2[C@H](c2ccc(NC34CC5CC(CC(C5)C3)C4)cc2)N1C(=O)CCl [Compound 27, 1-((1S,3S)-1-(4-(((3R,5R,7R)-adamantan-1-yl)amino)phenyl)-3-butyl-6-methoxy-3,4-dihydroisoquinolin-2(1H)-yl)-2-chloroethan-1-one] |
| – | – | 0.259 | COc1ccc2c(c1)C[C@H](C)N(C(=O)CCl)[C@H]2c1ccc(N2CCOCC2)cc1 [Compound 33] |
| – | – | 0.592 | COC(=O)c1ccc([C@H]2c3cc(OC)c(OC)cc3C[C@H](C)N2C(=O)CCl)cc1 [Compound 34] |
| 10 | 0.01 | 0.005 | C#CC(=O)N1[C@@H](CCCC)Cc2cc(OC)ccc2[C@@H]1c1ccc(C(=O)NC23CC4CC(CC(C4)C2)C3)cc1 [Compound 38, N-((3R,5R,7R)-adamantan-1-yl)-4-((1S,3S)-3-butyl-6-methoxy-2-propioloyl-1,2,3,4-tetrahydroisoquinolin-1-yl)benzamide] |
| 2.3 | 0.032 | 0.027 | C#CC(=O)N1[C@@H](CCCC)Cc2cc(OC)ccc2[C@@H]1c1ccc(-c2nc(C)no2)cc1 [Compound 55, 1-((1S,3S)-3-butyl-6-methoxy-1-(4-(3-methyl-1,2,4-oxadiazol-5-yl)phenyl)-3,4-dihydroisoquinolin-2(1H)-yl)prop-2-yn-1-one] |
| > 10 | 0.623 | 0.187 | C#CC(=O)N1[C@@H](CCCC)Cc2cc(OC)ccc2[C@@H]1C12CC(N)(C1)C2 [Compound 76, 1-((1S,3S)-1-(3-aminobicyclo[1.1.1]pentan-1-yl)-3-butyl-6-methoxy-3,4-dihydroisoquinolin-2(1H)-yl)prop-2-yn-1-one] |
| > 10 | 0.2 | 0.037 | C#CC(=O)N1[C@@H](CCCC)Cc2cc(OC)ccc2[C@@H]1c1ccc(NC(=O)c2ccnc(C)c2)cc1 [Compound 95, N-{4-[(1S,3S)-3-butyl-6-methoxy-2-(prop-2-ynoyl)-1,2,3,4-tetrahydroisoquinolin-1-yl]phenyl}-2-methylpyridine-4-carboxamide] |
| > 10 | 0.368 | 0.163 | C#CC(=O)N1[C@@H](CCCC)Cc2cc(OC)ccc2[C@@H]1C12CC(NC(=O)c3ccncc3)(C1)C2 [Compound 96, N-(3-((1S,3S)-3-butyl-6-methoxy-2-propioloyl-1,2,3,4-tetrahydroisoquinolin-1-yl)bicyclo[1.1.1]pentan-1-yl)isonicotinamide] |
| > 10 | 0.068 | 0.026 | C#CC(=O)N1[C@@H](CCCC)Cc2cc(OC)ccc2[C@@H]1c1ccc2ncccc2c1 [Compound 97, 1-((1S,3S)-3-butyl-6-methoxy-1-(quinolin-6-yl)-3,4-dihydroisoquinolin-2(1H)-yl)prop-2-yn-1-one] |
